Measurements taken from EP4813383A1, “USE OF TAFAMIDIS AND PHARMACEUTICALLY ACCEPTABLE SALT THEREOF IN PREVENTION, ALLEVIATION, OR TREATMENT OF DISEASES ASSOCIATED WITH HIF-2a” (Huaya Jiyuan (Shenzhen) Pharmaceutical Co., Ltd., priority 2024, dated 2025).

Tests used:
[1] = system: Cisplatin-induced renal injury and anemia rat model; assay: Cisplatin-induced renal injury and anemia rat model; type: in vivo, Male Sprague-Dawley (SD) rats
Description: Male Sprague-Dawley (SD) rats are allowed a one-week acclimation period, after which cisplatin (6 mg/kg) is administered through tail vein injection. A second injection is given one week later. Two weeks after the first administration, successful establishment of a renal disease model is confirmed by measuring serum creatinine and urea levels. The established rat model is randomly divided into four groups: a control group (n = 7), a cisplatin group (n = 6), a roxadustat group (n = 6), and a tafamidis group (n = 6). The roxadustat group and tafamidis group are orally administered the corresponding compound (roxadustat or tafamidis) at 10 mg/kg daily for four consecutive weeks. A corresponding solvent is administered to the control group and cisplatin group rat models based on the same dosing regimen. Urine samples are collected on the day following the final treatment, so as to measure UTP and UCREA. Hematological analysis is performed using a Mindray BC-5150 automated hematology analyzer, and urinalysis is performed using a Mindray BS-2000M automated biochemical analyzer, both using commercially available kits according to the manufacturers' instructions. After sample collection, the rats are euthanized. Statistical significance is determined by one-way analysis of variance (ANOVA), and then a Dunnett's test is performed for comparison with the cisplatin group (*P < 0.05, **P < 0.01, ***P < 0.001).
Left kidney samples collected from cisplatin-induced rats are fixed in 4% paraformaldehyde, dehydrated, embedded in paraffin, and sectioned. The tissue sections are 4 µm thick, and are subsequently subjected to histochemical staining such as hematoxylin-eosin (H&E), periodic acid-Schiff (PAS), and Masson's trichrome staining. After staining, the sections are scanned using advanced three-dimensional histological imaging technology, and high-resolution images are captured using a Pannoramic DESK/MIDI/250/1000 system. To evaluate renal tubular injury, 10 fields are randomly selected from each sample, and examined at a 40× magnification. The degree of renal tubular injury is assessed using a semi-quantitative scoring system (Paller score): 0 (no injury), 1 (<25% injury), 2 (25% to 50% injury), 3 (50% to 75% injury), and 4 (>75% injury). In addition, the entire tissue section is assessed at a 0.7× magnification to determine the extent of collagen fiber deposition shown by Masson's trichrome staining. Semi-quantitative analysis of the collagen fiber area is performed using Image-Pro Plus 6.0 software (Media Cybernetics, Rockville, MD, USA). For glomerular evaluation, 20 glomeruli are randomly selected from each rat and analyzed at a 63× magnification, using mesangial matrix expansion shown by PAS staining as an indicator. Semi-quantitative analysis of the mesangial matrix is likewise performed using Image-Pro Plus 6.0 software. Statistical significance is determined by one-way analysis of variance (ANOVA), and then a Dunnett's test is performed for comparison with the cisplatin group (*P < 0.05, **P < 0.01, ***P < 0.001).
Immunofluorescence staining is performed on 4 µm-thick kidney tissue sections. The sections are deparaffinized and rehydrated through ethanol, and then is subjected to microwave treatment in a 0.01 mol/L sodium citrate buffer (pH 6.0) for antigen retrieval. Subsequently, the sections are incubated overnight at 4 °C with a primary antibody against α-SMA (19245S, Cell Signaling Technology). After incubation, the sections is incubated at room temperature for 30 minutes with an HRP-conjugated secondary antibody (PK10009, Proteintech Group), and localization is performed using a DAB kit. After staining, the sections are scanned using advanced three-dimensional histological imaging technology, and high-resolution images are captured using a Pannoramic DESK/MIDI/250/1000 system. The entire tissue section is assessed at a 0.7× magnification to determine an α-SMA-positive region. […]

[2] = system: aristolochic acid-induced zebrafish model; assay: Aristolochic acid-induced zebrafish model: cardiac erythrocyte staining intensity (renal anemia); type: in vivo, Wild-type AB strain zebrafish; conditions: 30 hours, normal group 100%, model group 46%
Description: Wild-type AB strain zebrafish at 2 days post-fertilization are randomly selected and placed in a 6-well plate, with 30 zebrafish treated in each well (treatment group). Other than the normal control group, all treatment groups are exposed to aristolochic acid in aqueous solution to establish a zebrafish renal anemia model. After treatment at 28 °C for 18 hours, a normal control group and a model control group are set up simultaneously. Tafamidis samples are administered in aqueous solution to the treatment groups separately (at concentrations of 0.1 µM and 1 µM separately). Water is administered to the normal control group and the model control group correspondingly, with a volume of 3 mL per well. After continued treatment at 28 °C for 30 hours, staining is performed using o-dianisidine. After staining, 10 zebrafish are randomly selected from each treatment group and photographed under a dissecting microscope. Data is collected using NIS-Elements D 3.20 advanced image processing software, and the staining intensity of cardiac erythrocytes in the zebrafish is analyzed. The statistical significance of this indicator is used to evaluate the efficacy of the sample in alleviating renal anemia. Statistical analysis is performed using SPSS 26.0 software, and p < 0.05 indicates a statistically significant difference.

[3] = system: Cisplatin-induced renal injury and anemia rat model; assay: Cisplatin-induced renal injury and anemia rat model; type: in vivo, Male Sprague-Dawley (SD) rats; conditions: 10 mg/kg daily oral for four weeks, kidney sections
[4] = 10 mg/kg daily oral for four weeks, urine, versus cisplatin group
[5] = 10 mg/kg daily oral for four weeks, kidney tissue
[6] = 10 mg/kg daily oral for four weeks, urine, versus cisplatin group, p < 0.05

Compound | UTP levels [1, 4] | cardiac red blood cell count ([2]; 0.1 µM in aqueous solution) | cardiac red blood cell count ([2]; 1 µM in aqueous solution) | erythropoietin (EPO) protein levels, Western blot [1, 5] | α-SMA protein expression, Western blot [1, 5] | cisplatin-induced renal injury, semi-quantitative scoring (H&E, Masson's trichrome, PAS) ([1]; 10 mg/kg daily oral for four weeks, left kidney sections) | UCREA levels [1, 6] | UTP/UCREA ratio [1, 6] | Gross observation of kidney tissues (color) ([1]; 10 mg/kg daily oral for four weeks, normal control healthy red, cisplatin group white discoloration and edema) | Red blood cells (RBCs) ([1]; 10 mg/kg daily oral, week 4, cisplatin group 6.3 ± 0.3 ×10^12, p < 0.001) | Hematocrit (HCT) ([1]; 10 mg/kg daily oral, week 4, cisplatin group 46.2 ± 1.8%, p < 0.001) | Hemoglobin (HGB) ([1]; 10 mg/kg daily oral, week 4, cisplatin group 127.7 ± 4.7, p < 0.05) | α-smooth muscle actin (α-SMA) protein levels, immunohistochemical [3]
Cc1nc(C(=O)NCC(=O)O)c(O)c2ccc(Oc3ccccc3)cc12 [roxadustat] | increases | – | – | – | – | – | – | – | – | – | – | – | –
O=C(O)c1ccc2nc(-c3cc(Cl)cc(Cl)c3)oc2c1 [tafamidis, 2-(3,5-dichlorophenyl)-1,3-benzoxazole-6-carboxylic acid] | little effect | 60% | 65% | increasing | significantly reduces | significantly alleviates | increases | reducing | normal red color | 8.1 ± 0.4 × 10^12 cells/L | 58.4 ± 2.9% | 161.8 ± 9.3 g/L | significantly reduces
